Among the data in ChEMBL document CHEMBL3639321, “Triazolopyridine compounds as PIM kinase inhibitors” (2013) are IC50 values, retold here.

SMILES strings stand for the structures. pIC50: −log10 of the molar value.

What is called pIC50 is the IC50 on a negative log10 scale, so that one unit is a factor of ten.

The target of assay [1] is Serine/threonine-protein kinase pim-2 (Homo sapiens, UniProt Q9P1W9). Kind of assay: PIM-2 Enzyme Assay: The assay for the determination of PIM activity is based on the incorporation of [33P] ATP into PIM2tide substrate and capture of the radiolabeled peptide onto a Whatman P81 (phosphocellulose) filter plate. Assay mixtures contained 4 uM [gamma-33P] ATP (20 uCi/mL), 1.0 uM PIM2tide and […] PIM-2 in place of PIM-1.

Assay [2] has as its target Serine/threonine-protein kinase pim-3 (Rattus norvegicus, UniProt O70444). The assay can be described thus: PIM-3 Enzyme Assay: The assay for the determination of PIM activity is based on the incorporation of [33P] ATP into PIM2tide substrate and capture of the radiolabeled peptide onto a Whatman P81 (phosphocellulose) filter plate. Assay mixtures contained 30 uM [gamma-33P] ATP (20 uCi/mL), 3.75 uM PIM2tide and 0.5 nM recombinant rat PIM-3 in place of PIM-1.

Chain of Serine/threonine-protein kinase pim-2 (Q9P1W9 whole entry): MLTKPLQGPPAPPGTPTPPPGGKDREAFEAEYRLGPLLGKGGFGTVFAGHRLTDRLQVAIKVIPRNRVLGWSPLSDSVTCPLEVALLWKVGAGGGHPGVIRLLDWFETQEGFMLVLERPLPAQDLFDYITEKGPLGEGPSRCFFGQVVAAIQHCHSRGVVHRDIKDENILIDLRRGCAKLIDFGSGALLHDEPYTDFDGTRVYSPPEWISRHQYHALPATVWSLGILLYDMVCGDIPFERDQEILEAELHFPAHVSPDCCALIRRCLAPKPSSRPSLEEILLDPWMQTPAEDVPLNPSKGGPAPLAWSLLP

In the case of `CC1(C)CC(Nc2cccc3ccc(-c4nnc5ccccn45)nc23)CC(C)(C)N1`, the pIC50 in assay [1] is at most 5.00; in assay [2] it was 6.35.
